Laboratory results as given in ChEMBL document CHEMBL1201862, “PubChem BioAssay data set” (2004).
Active and inactive are the calls of the source.

Columns and labels:
[1] = target: T1, Oxysterols receptor LXR-beta (Homo sapiens, UniProt P55055); format: functional, cell-based;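 note: agonist activity at LXR measured by a cell-based luminescence readout across a dose range, run as a counterscreen for daf-12 agonists; HEK293 cells with Gal4-LXR fusion and GAL4-driven luciferase reporter; potency for activation of Gal4-LXR reporter so compounds are agonists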
T1 sequence (P55055 whole entry): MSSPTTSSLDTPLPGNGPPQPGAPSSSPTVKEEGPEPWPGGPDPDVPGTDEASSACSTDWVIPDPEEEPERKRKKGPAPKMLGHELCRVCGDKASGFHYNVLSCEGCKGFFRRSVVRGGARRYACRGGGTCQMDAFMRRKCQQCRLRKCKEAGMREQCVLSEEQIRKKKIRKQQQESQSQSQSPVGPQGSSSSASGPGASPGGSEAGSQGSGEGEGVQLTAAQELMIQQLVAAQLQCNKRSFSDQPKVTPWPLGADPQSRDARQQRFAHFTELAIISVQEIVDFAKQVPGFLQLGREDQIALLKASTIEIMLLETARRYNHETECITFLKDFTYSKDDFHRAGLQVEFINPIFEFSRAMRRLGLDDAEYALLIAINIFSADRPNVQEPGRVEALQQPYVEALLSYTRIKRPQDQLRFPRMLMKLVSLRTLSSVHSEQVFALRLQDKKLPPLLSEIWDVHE

Beta-galactosidase = Beta-galactosidase (Escherichia coli, UniProt Q8VNN2); assay: Dose response counterscreen for EBI2 assay utilizing the enzyme, b-galactosidase.; format: functional
Beta-lactamase [2] = target: Beta-lactamase (Salmonella choleraesuis (strain SC-B67), UniProt Q5J463); assay: Epi-absorbance-based counterscreen for selective VIM-2 inhibitors: dose response biochemical high throughput screening assay to identify inhibitors of TEM-1 serine-beta-lactamase.
[3] = target: DNA dC->dU-editing enzyme APOBEC-3A (Homo sapiens, UniProt P31941); assay: APOBEC3A DNA deaminase inhibitors, dose response, biochemical (AID 504722); format: functional
[4] = target: DNA dC->dU-editing enzyme APOBEC-3G (Homo sapiens, UniProt Q9HC16); assay: Dose Response confirmation of small molecule APOBEC3G DNA Deaminase Inhibitors via a fluorescence-based single-stranded DNA deaminase assay. [Related pubchem assays (depositor defined):AID493012, AID493028]; format: functional
Beta-lactamase [5] = target: T2, Beta-lactamase (Pseudomonas aeruginosa, UniProt Q79MP6); assay: IMP-1 metallo-beta-lactamase inhibitors, dose response, selectivity assay for VIM-2 inhibitor project, biochemical, epi-absorbance (AID 1920)
Beta-lactamase [6] = target: T2, Beta-lactamase; assay: […] counterscreen for selective VIM-2 inhibitors: dose response biochemical high throughput screening assay to identify inhibitors of IMP-1 metallo-beta-lactamase.
[7] = target: T3, Sentrin-specific protease 1 (Homo sapiens, UniProt Q9P0U3); assay: Dose response confirmation of small molecule inhibitors of the catalytic domain of the SUMO protease, SENP1 in a FRET assay.; format: functional; conditions: read-out: IC50_Mean
[8] = cytotoxicity in HEK-293T cells, dose response, cytotoxicity control for BCR NF-kB inhibitor project, luminescence, B-cell screen hits (AID 489021); format: functional, cell-based;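 note: HEK-293T cells carrying an NF-kB luciferase reporter; cells exposed to compound for about 14 hours before viability readout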
[9] = target: T3, Sentrin-specific protease 1; assay: potency of human SENP1 inhibitors, dose response, biochemical, kinetic FRET (AID 651697); format: functional; conditions: read-out: IC50_Mean
Albumin = Albumin (Bos taurus, UniProt P02769); assay: Counterscreen for inhibitors of T-cell receptor (TCR)-CD3 interaction: Fluorescence-based biochemical high throughput dose response assay to identify inhibitors of T-cell receptor (TCR)-CD3 interaction using a TAMRA-labeled BSA probe.; format: functional
Paired box protein Pax-8 = Paired box protein Pax-8 (Homo sapiens, UniProt Q06710); assay: inhibitors of PAX8-driven TPO luciferase reporter, dose response, RMG-I cells, cherry-pick (AID 687027); format: functional, cell-based;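 note: luciferase reporter driven by Pax8 target thyroperoxidase promoter measured by SteadyGlo luminescence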
cells = format: functional, cell-based
[10] = target: T4, Nuclear receptor subfamily 0 group B member 1 (Homo sapiens, UniProt P51843); format: functional, cell-based;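 note: HEK293T cells transfected with SF-1 and DAX-1 plus StAR promoter luciferase reporter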
T4 sequence (P51843 whole entry): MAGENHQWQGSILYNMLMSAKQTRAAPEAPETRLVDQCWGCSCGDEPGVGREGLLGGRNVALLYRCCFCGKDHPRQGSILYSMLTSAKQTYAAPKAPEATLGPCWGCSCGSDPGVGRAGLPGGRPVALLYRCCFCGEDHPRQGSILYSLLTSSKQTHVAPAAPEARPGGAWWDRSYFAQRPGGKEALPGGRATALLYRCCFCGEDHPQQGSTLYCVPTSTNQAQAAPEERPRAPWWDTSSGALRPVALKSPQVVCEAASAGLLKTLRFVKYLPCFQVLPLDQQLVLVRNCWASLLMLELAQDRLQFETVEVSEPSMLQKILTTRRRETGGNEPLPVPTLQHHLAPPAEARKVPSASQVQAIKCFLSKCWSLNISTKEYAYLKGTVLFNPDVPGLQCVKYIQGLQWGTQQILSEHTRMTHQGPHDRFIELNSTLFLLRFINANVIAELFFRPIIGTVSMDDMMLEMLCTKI

Vero = assay: Vero cell toxicity, dose response, cytotoxicity control, plate reader, cherry-pick samples (AID 687020); format: functional, cell-based; conditions: Chlorocebus sabaeus
[11] = target: Melanin-concentrating hormone receptor 1 (Homo sapiens, UniProt Q99705); assay: Fluorescence-based counterscreen for antagonists of the G-protein coupled receptor 7 (GPR7): cell-based high throughput dose response assay to identify antagonists of the melanin-concentrating hormone receptor 1 (MCHR1).; format: functional
[12] = target: T5, Neuropeptides B/W receptor type 1 (Homo sapiens, UniProt P48145); assay: Fluorescence-based dose response cell-based high throughput screening assay to identify antagonists of the G-protein coupled receptor 7 (GPR7). [Related pubchem assays: 1952 (Screening assay (GPR7 antagonists).), 1880 (Summary AID.)]; format: functional
T5 sequence (P48145 whole entry): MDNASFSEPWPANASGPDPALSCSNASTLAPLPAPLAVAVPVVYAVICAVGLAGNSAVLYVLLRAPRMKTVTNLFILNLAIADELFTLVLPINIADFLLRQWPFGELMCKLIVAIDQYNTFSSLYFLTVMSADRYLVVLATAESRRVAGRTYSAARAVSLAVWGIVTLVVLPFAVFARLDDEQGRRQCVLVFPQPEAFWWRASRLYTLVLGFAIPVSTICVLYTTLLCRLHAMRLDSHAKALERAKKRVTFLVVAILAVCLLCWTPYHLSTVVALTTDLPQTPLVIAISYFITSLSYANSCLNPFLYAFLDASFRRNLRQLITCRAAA

[13] = target: T6, Rac GTPase-activating protein 1 (Homo sapiens, UniProt Q9H0H5); assay: MgcRacGAP GTPase-activating activity inhibitors, confirmation, biochemical, ADP Hunter fluorescence, primary and confirmatory (AID 624330); format: functional
T6 sequence (Q9H0H5 whole entry): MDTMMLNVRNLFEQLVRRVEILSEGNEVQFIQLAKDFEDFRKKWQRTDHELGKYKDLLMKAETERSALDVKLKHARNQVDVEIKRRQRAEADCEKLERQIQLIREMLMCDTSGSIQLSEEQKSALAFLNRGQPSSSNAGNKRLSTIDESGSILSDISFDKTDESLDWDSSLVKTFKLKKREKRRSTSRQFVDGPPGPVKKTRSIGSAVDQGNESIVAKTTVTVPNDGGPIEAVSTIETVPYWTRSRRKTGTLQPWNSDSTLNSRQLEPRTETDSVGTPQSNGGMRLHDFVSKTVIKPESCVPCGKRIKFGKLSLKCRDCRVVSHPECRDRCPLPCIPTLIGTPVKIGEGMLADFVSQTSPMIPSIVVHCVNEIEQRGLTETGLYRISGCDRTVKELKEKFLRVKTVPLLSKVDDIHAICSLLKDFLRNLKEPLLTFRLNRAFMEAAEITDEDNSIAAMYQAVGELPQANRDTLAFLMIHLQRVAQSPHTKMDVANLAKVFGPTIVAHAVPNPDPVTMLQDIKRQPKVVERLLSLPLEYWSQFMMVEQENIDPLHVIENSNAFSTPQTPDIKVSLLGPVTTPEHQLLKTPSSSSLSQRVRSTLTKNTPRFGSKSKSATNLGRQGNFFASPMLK

[14] = target: T7, Long-chain-fatty-acid--AMP ligase FadD28 (Mycobacterium tuberculosis, UniProt P9WQ59); assay: Fluorescence polarization aasay to screen for inhibitors that compete for the binding of FadD28 to a bisubstrate Measured in Biochemical System Using Plate Reader - 2147-01_Inhibitor_Dose_CherryPick_Activity.; format: functional, Mycobacterium tuberculosis H37Rv
T7 sequence (P9WQ59 whole entry): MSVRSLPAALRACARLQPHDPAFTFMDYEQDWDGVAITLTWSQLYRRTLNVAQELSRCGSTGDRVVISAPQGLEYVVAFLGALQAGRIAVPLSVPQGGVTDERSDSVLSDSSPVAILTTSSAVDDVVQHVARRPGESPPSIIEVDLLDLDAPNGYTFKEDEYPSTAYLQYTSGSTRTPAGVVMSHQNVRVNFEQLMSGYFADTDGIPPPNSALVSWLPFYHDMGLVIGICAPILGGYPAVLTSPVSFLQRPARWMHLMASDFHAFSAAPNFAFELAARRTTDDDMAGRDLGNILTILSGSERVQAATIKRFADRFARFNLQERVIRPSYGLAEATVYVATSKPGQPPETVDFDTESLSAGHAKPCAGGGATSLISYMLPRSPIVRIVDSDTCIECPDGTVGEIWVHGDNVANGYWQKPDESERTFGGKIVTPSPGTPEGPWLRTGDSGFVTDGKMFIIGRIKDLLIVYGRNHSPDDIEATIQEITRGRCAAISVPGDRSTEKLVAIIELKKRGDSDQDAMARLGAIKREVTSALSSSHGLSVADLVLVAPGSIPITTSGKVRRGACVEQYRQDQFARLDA

[15] = target: 5-hydroxytryptamine receptor 2A (Mus musculus, UniProt P35363); format: functional, cell-based;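 note: CHO-K1 cells with tagged receptor and beta-arrestin; agonist potency measured as compound-induced activation of the receptor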
Mu-type opioid receptor = Mu-type opioid receptor (Homo sapiens, UniProt P35372); format: functional, cell-based;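 note: U2OS cells with beta-arrestin recruitment to OPRM1 by beta-gal complementation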
Mu-type opioid receptor, sequence (P35372 whole entry): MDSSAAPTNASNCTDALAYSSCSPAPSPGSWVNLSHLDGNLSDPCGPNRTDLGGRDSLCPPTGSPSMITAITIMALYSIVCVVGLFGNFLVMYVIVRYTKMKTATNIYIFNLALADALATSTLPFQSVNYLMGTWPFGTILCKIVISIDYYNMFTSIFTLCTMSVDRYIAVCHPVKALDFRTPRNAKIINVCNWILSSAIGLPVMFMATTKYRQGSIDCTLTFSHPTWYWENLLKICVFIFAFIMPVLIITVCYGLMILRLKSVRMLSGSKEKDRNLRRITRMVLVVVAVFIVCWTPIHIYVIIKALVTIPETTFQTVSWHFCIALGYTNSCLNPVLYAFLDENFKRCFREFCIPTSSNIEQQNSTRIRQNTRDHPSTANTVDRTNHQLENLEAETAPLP

T3 sequence (Q9P0U3 whole entry, the tested form may be a part): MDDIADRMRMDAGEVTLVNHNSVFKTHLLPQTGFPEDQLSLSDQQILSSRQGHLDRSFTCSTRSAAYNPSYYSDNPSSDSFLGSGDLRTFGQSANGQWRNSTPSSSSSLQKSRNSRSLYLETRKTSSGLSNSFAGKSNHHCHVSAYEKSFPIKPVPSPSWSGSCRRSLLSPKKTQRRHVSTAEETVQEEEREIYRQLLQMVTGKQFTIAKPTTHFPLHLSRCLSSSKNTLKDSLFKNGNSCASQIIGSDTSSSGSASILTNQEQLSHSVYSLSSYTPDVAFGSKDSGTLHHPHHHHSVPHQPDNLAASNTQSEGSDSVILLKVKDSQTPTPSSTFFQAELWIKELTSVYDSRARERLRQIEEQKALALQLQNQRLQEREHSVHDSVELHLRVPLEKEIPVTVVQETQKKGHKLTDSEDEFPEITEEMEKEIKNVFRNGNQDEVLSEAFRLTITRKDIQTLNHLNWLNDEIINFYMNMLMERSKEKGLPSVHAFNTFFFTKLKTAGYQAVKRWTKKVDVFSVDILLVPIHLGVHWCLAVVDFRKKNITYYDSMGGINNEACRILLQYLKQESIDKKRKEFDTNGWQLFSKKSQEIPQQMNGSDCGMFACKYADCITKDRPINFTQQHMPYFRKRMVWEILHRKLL
T2 sequence (Q79MP6 whole entry): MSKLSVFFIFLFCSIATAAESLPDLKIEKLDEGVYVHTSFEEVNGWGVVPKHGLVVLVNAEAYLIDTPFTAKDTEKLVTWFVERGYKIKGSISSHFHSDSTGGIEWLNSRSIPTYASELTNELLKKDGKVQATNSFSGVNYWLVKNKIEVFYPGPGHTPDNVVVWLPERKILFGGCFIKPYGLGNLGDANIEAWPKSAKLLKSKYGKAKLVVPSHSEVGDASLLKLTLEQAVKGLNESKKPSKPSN
5-hydroxytryptamine receptor 2A, sequence (P35363 whole entry): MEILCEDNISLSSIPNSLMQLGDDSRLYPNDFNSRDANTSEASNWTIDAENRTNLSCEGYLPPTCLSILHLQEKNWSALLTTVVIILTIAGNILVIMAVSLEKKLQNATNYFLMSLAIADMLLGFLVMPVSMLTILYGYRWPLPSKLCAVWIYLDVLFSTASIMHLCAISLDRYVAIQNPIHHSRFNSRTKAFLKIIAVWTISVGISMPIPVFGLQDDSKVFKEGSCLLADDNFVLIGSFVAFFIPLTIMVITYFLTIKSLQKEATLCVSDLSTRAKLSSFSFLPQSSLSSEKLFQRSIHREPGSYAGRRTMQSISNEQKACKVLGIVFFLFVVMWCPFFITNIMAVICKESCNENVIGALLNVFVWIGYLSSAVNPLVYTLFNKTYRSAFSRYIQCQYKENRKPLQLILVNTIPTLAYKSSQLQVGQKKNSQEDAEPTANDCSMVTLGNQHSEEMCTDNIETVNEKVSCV
Albumin, sequence (P02769 whole entry): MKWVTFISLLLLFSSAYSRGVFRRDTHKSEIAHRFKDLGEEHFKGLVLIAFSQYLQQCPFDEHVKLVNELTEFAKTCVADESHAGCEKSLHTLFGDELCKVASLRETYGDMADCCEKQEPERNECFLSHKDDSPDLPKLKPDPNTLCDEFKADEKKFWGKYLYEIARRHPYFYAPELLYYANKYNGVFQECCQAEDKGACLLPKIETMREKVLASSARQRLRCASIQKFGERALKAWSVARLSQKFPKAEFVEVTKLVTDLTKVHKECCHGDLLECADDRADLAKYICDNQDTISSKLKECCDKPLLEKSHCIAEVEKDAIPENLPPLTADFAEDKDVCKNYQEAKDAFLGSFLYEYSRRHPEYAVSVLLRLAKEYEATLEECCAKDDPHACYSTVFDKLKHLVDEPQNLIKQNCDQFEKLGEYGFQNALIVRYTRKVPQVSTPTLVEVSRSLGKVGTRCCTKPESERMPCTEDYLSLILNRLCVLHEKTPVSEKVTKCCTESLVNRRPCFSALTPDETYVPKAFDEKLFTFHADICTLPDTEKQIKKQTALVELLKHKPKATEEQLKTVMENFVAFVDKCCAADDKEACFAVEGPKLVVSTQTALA
Beta-galactosidase, sequence (Q8VNN2 whole entry): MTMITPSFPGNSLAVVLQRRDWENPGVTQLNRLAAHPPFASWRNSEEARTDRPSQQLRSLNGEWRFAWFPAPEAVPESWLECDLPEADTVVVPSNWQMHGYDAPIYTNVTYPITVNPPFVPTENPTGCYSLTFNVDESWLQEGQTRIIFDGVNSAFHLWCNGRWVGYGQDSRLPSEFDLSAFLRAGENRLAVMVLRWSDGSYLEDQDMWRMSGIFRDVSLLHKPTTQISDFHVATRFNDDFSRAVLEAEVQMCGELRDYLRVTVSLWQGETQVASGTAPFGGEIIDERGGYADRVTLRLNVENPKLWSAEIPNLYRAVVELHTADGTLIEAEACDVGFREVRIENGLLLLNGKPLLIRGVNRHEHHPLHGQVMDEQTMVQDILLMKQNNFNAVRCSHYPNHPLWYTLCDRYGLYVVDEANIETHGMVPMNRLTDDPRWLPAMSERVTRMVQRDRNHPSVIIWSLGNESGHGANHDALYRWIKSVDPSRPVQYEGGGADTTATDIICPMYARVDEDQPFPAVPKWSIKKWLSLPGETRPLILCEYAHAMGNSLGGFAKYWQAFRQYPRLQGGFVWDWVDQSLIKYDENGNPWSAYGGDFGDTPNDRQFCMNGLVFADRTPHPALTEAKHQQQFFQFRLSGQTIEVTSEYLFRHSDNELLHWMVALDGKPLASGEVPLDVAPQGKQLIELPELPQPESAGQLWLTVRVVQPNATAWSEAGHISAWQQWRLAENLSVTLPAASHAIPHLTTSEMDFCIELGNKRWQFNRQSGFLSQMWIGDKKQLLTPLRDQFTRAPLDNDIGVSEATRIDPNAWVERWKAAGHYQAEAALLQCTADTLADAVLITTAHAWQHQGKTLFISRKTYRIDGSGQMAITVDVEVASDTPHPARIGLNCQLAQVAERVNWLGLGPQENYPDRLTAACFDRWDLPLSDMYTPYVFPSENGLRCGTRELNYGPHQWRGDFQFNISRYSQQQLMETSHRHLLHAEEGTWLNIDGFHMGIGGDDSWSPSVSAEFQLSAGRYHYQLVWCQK
Beta-lactamase (Salmonella choleraesuis (strain SC-B67), UniProt Q5J463), sequence (Q5J463 whole entry): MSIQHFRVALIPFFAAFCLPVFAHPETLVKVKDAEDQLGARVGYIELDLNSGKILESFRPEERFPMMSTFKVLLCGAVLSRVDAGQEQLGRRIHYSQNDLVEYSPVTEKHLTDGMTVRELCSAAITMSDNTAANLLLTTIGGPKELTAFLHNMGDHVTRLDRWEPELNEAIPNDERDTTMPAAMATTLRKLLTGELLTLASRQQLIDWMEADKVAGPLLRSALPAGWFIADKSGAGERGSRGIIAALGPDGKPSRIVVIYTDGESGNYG
Melanin-concentrating hormone receptor 1, sequence (Q99705 whole entry): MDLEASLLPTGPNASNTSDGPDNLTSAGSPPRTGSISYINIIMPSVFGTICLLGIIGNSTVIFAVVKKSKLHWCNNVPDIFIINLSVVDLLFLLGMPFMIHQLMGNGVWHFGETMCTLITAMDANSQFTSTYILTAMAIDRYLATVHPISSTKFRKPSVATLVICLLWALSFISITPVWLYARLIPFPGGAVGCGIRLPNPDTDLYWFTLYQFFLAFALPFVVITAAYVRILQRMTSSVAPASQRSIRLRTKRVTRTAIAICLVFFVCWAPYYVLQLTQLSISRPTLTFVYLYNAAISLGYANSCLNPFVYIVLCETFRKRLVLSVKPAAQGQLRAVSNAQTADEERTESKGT
Paired box protein Pax-8, sequence (Q06710 whole entry): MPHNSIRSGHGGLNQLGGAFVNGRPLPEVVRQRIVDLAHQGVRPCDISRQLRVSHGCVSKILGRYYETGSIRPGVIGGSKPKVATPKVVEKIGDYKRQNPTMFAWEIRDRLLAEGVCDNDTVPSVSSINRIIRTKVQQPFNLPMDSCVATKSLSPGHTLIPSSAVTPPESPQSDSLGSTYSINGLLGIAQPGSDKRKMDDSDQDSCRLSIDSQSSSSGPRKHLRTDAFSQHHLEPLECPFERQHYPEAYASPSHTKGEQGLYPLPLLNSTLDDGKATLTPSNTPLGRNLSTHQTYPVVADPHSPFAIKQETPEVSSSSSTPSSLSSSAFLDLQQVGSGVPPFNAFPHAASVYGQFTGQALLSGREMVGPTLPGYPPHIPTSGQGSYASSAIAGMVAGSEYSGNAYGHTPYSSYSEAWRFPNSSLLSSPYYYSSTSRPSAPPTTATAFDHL
DNA dC->dU-editing enzyme APOBEC-3G, sequence (Q9HC16 whole entry): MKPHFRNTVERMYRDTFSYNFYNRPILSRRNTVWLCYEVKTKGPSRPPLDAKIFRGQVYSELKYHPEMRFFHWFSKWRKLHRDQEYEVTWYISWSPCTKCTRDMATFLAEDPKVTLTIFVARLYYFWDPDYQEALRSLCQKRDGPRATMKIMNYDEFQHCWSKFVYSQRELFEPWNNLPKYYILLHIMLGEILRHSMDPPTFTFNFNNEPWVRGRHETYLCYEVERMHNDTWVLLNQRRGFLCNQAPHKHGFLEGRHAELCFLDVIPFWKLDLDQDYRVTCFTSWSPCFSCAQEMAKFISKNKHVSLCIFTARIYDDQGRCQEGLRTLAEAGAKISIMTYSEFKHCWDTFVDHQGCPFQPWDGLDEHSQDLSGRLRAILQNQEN

Compound: O=C(Nc1ccc(Cl)cn1)c1cc2ccccc2o1
- EC50 [1]: > 67.5 µM (inactive)

Compound: Cc1ccc(Oc2ccc(Oc3ccc(C)cc3)nn2)cc1
- IC50 (Beta-galactosidase): > 80 µM (inactive)

Compound: Cn1c(-c2sccc2OCc2ccccc2)n[nH]c1=S
- IC50 (Beta-lactamase [2]): > 59.6 µM (inactive)
- IC50 [3]: > 100 µM (inactive)
- IC50 [4]: 2.8 µM (active)
- IC50 (Beta-lactamase [5]): > 59.6 µM (inactive)
- IC50 (Beta-lactamase [6]): > 59.6 µM (inactive)

Compound: N#CC1=C(N)Oc2cc(Nc3ccccc3)ccc2C1c1ccncc1 (stereo unspecified)
- IC50 [7]: 30.5 µM (inactive)
- IC50 [8]: 48.3 µM (inactive)
- IC50 [9]: 41.9 µM (inactive)

Compound: O=C(NNC(=O)c1ccc2ccccc2c1O)c1cccs1
- IC50 (Albumin): > 94.1 µM (inactive)

Compound: COc1cc(-c2cnc3c(NC=O)cc(-c4ccc(C)cc4)cn23)cc(OC)c1OC
- AC50 (Paired box protein Pax-8): < 0.26 µM (active)
- IC50 (cells): > 67.5 µM (inactive)
- IC50 [10]: > 0.834 µM (active)

Compound: CCOC(=O)[C@@H]1[C@H]2COc3ccc(Br)cc3[C@@H]2N2C(=O)N(c3ccc(C)cc3)C(=O)[C@]12C
- AC50 (Vero): 35.3 µM (active)

Compound: C/N=c1\scc(-c2ccc(F)cc2)n1/N=C/c1ccc(O)c(O)c1
- IC50 [11]: 13 µM (not active)
- IC50 [12]: > 14.6 µM (not active)
- IC50 [13]: 29.6 µM (active)
- AC50 [14]: 12.2 µM (active)
- EC50 [15]: 5.08 µM (active)
- EC50 (Mu-type opioid receptor): 92.5 µM (inactive)
